This note sets out measurements from ChEMBL document CHEMBL1817620, “Synthesis and cytotoxicity of 2-phenylquinazolin-4(3H)-one derivatives” (Eur J Med Chem, 2011).

What is called IC50 is the point on the concentration scale where inhibition reaches its midpoint.

In test [1] the test system is HeLa. The test can be described thus: Cytotoxicity against human HeLa cells after 4 days by MTT assay. Type of test: functional, cell-based. As to conditions: 96 h.
A further test relates to HCT-29. The experiment in a line: Cytotoxicity against human HCT29 cells after 4 days by MTT assay. The settings on record: HCT-29, 96 h. Type of test: functional, cell-based. On the technique in general: Tetrazolium assays rely on reduction of a dye to a coloured formazan, in cell work by metabolically active cells.
For another test, the system named is DU-145. The test can be described thus: Cytotoxicity against human DU145 cells after 4 days by MTT assay. The settings on record: DU-145, 96 h. The test is classed as functional, cell-based.
A further test has as its system MDA-MB-231. The experiment in a line: Cytotoxicity against human MDA-MB-231 cells after 4 days by MTT assay. The test is classed as functional, cell-based. The settings on record: MDA-MB-231, 96 h.
The test system of a further test is HL-60. The experiment in a line: Cytotoxicity against human HL60 cells after 4 days by MTT assay. Type of test: functional, cell-based. The settings on record: HL-60, 96 h.
For test [2], the system named is HeLa. The experiment in a line: Cell cycle arrest in human HeLa cells assessed as enhanced ratio of cell death at 10 umol after 72 hrs using propidium iodide staining by flow cytometry relative to control. Type of test: functional. For orientation: A flow cytometer gives signals particle by particle.
In test [3] the test system is HeLa. The experiment in a line: Cell cycle arrest in human HeLa cells assessed as fold increase in G1 phase at 10 umol after 36 hrs using propidium iodide staining by flow cytometry relative to control. Type of test: functional.
Test [4] deals with Poly [ADP-ribose] polymerase 1 (Homo sapiens) (UniProt P09874). The test can be described thus: Inhibition of PARP1.
Sequence of Poly [ADP-ribose] polymerase 1 (Homo sapiens) (P09874 whole entry): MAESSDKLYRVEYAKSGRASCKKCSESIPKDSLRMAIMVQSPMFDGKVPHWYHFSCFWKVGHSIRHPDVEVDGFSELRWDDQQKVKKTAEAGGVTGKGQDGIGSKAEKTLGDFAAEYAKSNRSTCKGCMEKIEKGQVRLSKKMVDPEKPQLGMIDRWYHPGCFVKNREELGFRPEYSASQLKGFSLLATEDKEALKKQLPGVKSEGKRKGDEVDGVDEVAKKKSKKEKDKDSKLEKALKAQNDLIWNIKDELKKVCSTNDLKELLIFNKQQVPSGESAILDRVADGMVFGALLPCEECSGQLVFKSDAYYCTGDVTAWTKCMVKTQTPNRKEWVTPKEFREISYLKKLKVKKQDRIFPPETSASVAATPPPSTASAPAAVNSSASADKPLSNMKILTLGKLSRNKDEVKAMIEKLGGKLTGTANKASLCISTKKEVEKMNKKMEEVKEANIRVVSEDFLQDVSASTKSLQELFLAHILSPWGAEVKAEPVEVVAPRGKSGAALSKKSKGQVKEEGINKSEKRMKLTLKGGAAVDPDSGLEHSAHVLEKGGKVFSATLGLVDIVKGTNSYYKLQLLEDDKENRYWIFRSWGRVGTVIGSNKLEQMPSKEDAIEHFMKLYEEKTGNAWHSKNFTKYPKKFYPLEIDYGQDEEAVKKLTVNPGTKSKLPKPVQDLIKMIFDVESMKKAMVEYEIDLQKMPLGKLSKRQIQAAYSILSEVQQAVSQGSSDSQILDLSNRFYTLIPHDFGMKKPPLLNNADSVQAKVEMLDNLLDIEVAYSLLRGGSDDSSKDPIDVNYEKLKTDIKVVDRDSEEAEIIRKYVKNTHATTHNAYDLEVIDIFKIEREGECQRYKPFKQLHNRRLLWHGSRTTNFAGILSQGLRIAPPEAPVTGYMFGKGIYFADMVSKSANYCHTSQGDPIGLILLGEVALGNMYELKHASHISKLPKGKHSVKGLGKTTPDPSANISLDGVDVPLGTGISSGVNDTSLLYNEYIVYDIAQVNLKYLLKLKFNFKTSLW

Activity calls are given as the source filed them. The calls are words filed in the database; no cut-off is given here.

Regarding `O=C(c1ccc(-c2nc3ccccc3c(=O)[nH]2)cc1)N1CCN(S(=O)(=O)Cc2ccccc2)CC1`, the concentration for half-maximal inhibition (IC50) with HeLa [1] was found to be 9.1 µM; with HCT-29, 2.3 µM; with DU-145, 7.7 µM; in the test with MDA-MB-231, 15.8 µM; with HL-60 it was 18.7 µM. In the test on HeLa [2], the Ratio came out at 7.04. Also, in the test on HeLa [3], the “fold change (FC)” value came out at 1.21. Further, the inhibition result in test [4] was “inactive”.
For `O=C(c1ccc(-c2nc3ccccc3c(=O)[nH]2)cc1)N1CCN(S(=O)(=O)c2ccc([N+](=O)[O-])cc2)CC1`, the IC50 in the test on HeLa [1] came to 20 µM; in the test with HCT-29, 2.6 µM; in the test on DU-145 it was 25.2 µM; in the test with MDA-MB-231, 12.5 µM; in the test on HL-60, 2 µM. Further, the inhibition entry in test [4] was “inactive”.
